Measurements reported in patent US7408024B2, “Somatostatin antagonists” (The Administrators of the Tulane Educational Fund, priority 2001, dated 2008).
Where a SMILES comes first, the peptide text is derived from it. Bridges are numbered along the chain shown (N, C = ends). [ ]: non-standard residue; d: D form. Phe(4-Cl) = N[C@@H](Cc1ccc(Cl)cc1)C(=O)O; dNMeW = CN[C@H](Cc1c[nH]c2ccccc12)C(=O)O; 2Nal = N[C@@H](Cc1ccc2ccccc2c1)C(=O)O; 3Pal = N[C@@H](Cc1cccnc1)C(=O)O; NMeK = CN[C@@H](CCCCN)C(=O)O

Tests used:
hsst1 = target: T1, hsst1 (Homo sapiens, UniProt P30872); assay: Radioligand binding, cloned human sst1 receptor (CHO-K1 membranes); conditions: [125I]Tyr11-SRIF, CHO-K1 cell membranes; single values = one binding experiment; read-out: K1 ± SEM hsst1
T1 construct: each containing the entire coding region of the full-length receptors; expressed in transfected cells
Description: (§1) The genomic clones containing the human somatostatin receptors (hsstr1-5) (Yamada, Y., et al. al., Proc. Natl. Acad. Sci. USA. 1992, 89, 251-255; Yasuda, K., et al., J. Biol. Chem. 1992, 267, 20422-20428; Yamada, Y., et al., Mol. Pharmacol. 1992, 42, 2136-2142; Rohrer, L., et al., Proc. Natl. Acad. Sci. USA. 1993, 90, 4196-4200.), were kindly provided by Dr. Graeme I. Bell (University of Chicago). The hsstr1, hsstr2, hsstr3, hsstr4 and hsstr5 cDNAs were isolated as a 1.5-kb PstI-XmnI fragment, 1.7-kb BamHI-HindIII fragment, 2.0-kb NcoI-HindIII fragment, 1.4-kb NheI-NdeI fragment, and a 1.2-kb HindIII-XbaI fragment, respectively, each containing the entire coding region of the full-length receptors. These fragments were independently subdloned into the corresponding restriction endonuclease sites in the mammalian expression vector pCMV5, downstream from the human cytomegalovirus (CMV) promoter, to produce the expression plasmids pCMV5/hsstr1, pCMV5/hsstr2, pCMV5/hsstr3, pCMV5/hsstr4 and pCMV5/hsstr5. For transfection into CHO-K1 cells, a plasmid, pRSV-neo (American Type Culture Collection, Rockville, Md.), carrying the neomycin mammalian cell selectable marker was added.
(§2) Transfections were performed by the calcium phosphate method. CHO-K1 cells are maintained in α-minimum essential medium (α-MEM; Gibco) supplemented with 10% fetal calf serum and transfected with each of the expression plasmids using calcium phosphate precipitation. Clones that had inherited the expression plasmid were selected in α-MEM supplemented with 500 μg mL^−1 of geneticin (G418; Gibco). Independent CHO-K1 clones were picked by glass-ring cloning and expanded in culture in the selective media. Membranes were prepared from the isolated clones and hsstr expression was initially assessed for binding with [^125I]Tyr^11-SRIF and [^125]IMK-678 (for sstr2).
(§3) Cell membranes of the 5 receptor types were obtained from homogenates (Polytron setting 6, 15 sec) of the corresponding CHO-K1 cells, in ice-cold Tris-HCl (50 mM) and centrifuged (39000 g, 10 min×2), with an intermediate resuspension in fresh buffer. The final pellets are resuspended in Tris-HCl (10 mM) for assay. Aliquots of the membranes are incubated (30 min at 37° C.) with 0.05 nM [^125I]Tyr^11-SRIF (types 1,3,4,5) or [^125I]MK-678 (type 2) in 50 mM HEPES (pH 7.4) containing BSA (10 mg mL^−1); MgCl2 (5 mM), Trasylol (200 kIU mL^−1), bacitracin (0.02 mg mL^−1), and phenylmethanesulfonyl fluoride (0.02 mg mL^−1). The final assay volume is 0.3 mL and incubations are terminated by rapid filtration through GF/C filters pre-soaked in 0.3% poly(ethylenimine) using a Brandel rapid filtration module. Each tube and filter is then washed with aliquots of cold buffer (3×5 mL).
(§4) Specific binding is. defined as the total radioligand bound minus that bound in the presence of 1.0 μM SRIF.

hsst2 = target: T2, hsst2 (Homo sapiens, UniProt P30874); assay: Radioligand binding, cloned human sst2 receptor (CHO-K1 membranes); conditions: [125I]MK-678, CHO-K1 cell membranes; single values = one binding experiment; read-out: K1 ± SEM hsst2
T2 construct: each containing the entire coding region of the full-length receptors; expressed in transfected cells
Description: as §1, §2, §3, §4

hsst4 = target: T3, hsst4 (Homo sapiens, UniProt P31391); assay: Radioligand binding, cloned human sst4 receptor (CHO-K1 membranes); conditions: [125I]Tyr11-SRIF, CHO-K1 cell membranes; single values = one binding experiment; read-out: K1 ± SEM hsst4
T3 construct: each containing the entire coding region of the full-length receptors; expressed in transfected cells
Description: as §1, §2, §3, §4

[1] = tested on: SRIF inhibition of GH release in rat anterior pituitary cells; format: cell-based
Experimental: Anterior pituitaries from adult male rats were collected and dispersed by a previously described trypsin/DNase method. (Murphy, W. A.; Taylor, J.; Moreau, J.-P. and Coy, D. […] Sigma) and nystatin (10,000 U mL^−1; Gibco). The cells were randomly plated at a density of approximately 200,000 cells/well (Costar cluster 24; Rochester Scientific Co., Rochester, N.Y.). The plated cells were maintained in the above Dulbecco's medium in a humidified atmosphere of 95% air/5% CO2 at 37° C. for 4-6 days. In preparation for a hormone challenge, the cells were washed with medium 199 (Gibco, 3×1 mL). […] Sigma Chemical Co.). […] After 3 h incubation in an air/carbon dioxide atmosphere (95/5%, 3 h at 37° C.), the medium was removed and stored at −20° C. until assayed for hormone content. Growth hormone in media was measured by a standard double antibody RIA using components generously supplied by Dr. A. F. Parlow at the National Hormone and Pituitary Program (NHHP) Torrance, Calif.

hsst5 = target: T4, hsst5 (Homo sapiens, UniProt P35346); assay: Radioligand binding, cloned human sst5 receptor (CHO-K1 membranes); conditions: [125I]Tyr11-SRIF, CHO-K1 cell membranes; single values = one binding experiment; read-out: K1 ± SEM hsst5
T4 construct: each containing the entire coding region of the full-length receptors; expressed in transfected cells
Description: as §1, §2, §3, §4

hsst3 = target: T5, hsst3 (Homo sapiens, UniProt P32745); assay: Radioligand binding, cloned human sst3 receptor (CHO-K1 membranes); conditions: [125I]Tyr11-SRIF, CHO-K1 cell membranes; single values = one binding experiment; read-out: K1 ± SEM hsst3
T5 construct: each containing the entire coding region of the full-length receptors; expressed in transfected cells
Description: as §1, §2, §3, §4

T1 sequence (P30872 whole entry): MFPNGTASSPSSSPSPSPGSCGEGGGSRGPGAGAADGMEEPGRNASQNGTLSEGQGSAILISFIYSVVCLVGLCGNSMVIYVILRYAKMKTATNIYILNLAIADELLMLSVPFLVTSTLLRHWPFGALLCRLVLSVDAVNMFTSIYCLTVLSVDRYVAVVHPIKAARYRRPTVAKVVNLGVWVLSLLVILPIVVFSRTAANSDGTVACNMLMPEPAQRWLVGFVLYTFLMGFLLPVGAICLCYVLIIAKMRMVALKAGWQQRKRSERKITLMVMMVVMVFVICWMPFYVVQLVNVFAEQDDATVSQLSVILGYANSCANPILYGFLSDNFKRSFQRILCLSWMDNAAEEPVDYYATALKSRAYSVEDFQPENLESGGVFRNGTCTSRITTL
T4 sequence (P35346 whole entry): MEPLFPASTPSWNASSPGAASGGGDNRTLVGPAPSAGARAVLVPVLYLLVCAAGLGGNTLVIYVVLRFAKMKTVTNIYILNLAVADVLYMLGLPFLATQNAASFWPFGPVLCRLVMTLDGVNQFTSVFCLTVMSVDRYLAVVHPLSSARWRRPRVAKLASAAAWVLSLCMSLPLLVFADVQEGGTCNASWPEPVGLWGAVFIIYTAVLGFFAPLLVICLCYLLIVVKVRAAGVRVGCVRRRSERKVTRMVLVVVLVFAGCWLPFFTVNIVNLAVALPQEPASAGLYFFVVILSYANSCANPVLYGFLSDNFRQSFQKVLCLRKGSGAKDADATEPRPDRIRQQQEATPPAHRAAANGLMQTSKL
T2 sequence (P30874 whole entry): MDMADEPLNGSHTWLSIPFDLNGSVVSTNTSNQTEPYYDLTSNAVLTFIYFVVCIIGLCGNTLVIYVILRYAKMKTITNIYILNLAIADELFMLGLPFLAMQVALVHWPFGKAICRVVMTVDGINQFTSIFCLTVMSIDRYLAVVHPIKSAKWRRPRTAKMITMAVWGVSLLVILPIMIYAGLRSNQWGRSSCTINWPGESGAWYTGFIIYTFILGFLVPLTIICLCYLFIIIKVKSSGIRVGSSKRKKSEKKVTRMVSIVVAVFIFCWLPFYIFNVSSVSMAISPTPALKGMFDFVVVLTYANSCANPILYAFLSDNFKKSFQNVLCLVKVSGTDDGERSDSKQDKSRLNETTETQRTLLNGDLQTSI
T3 sequence (P31391 whole entry): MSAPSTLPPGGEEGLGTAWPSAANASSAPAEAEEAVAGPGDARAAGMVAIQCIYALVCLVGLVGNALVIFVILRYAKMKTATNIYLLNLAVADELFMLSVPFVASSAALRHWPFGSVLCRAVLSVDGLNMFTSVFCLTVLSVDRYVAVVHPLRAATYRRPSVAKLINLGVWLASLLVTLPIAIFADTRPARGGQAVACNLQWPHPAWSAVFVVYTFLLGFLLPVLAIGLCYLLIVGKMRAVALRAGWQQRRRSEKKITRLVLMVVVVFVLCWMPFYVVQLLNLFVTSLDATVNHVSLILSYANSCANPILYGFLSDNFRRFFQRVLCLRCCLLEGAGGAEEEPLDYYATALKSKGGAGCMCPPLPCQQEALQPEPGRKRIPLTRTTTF
T5 sequence (P32745 whole entry): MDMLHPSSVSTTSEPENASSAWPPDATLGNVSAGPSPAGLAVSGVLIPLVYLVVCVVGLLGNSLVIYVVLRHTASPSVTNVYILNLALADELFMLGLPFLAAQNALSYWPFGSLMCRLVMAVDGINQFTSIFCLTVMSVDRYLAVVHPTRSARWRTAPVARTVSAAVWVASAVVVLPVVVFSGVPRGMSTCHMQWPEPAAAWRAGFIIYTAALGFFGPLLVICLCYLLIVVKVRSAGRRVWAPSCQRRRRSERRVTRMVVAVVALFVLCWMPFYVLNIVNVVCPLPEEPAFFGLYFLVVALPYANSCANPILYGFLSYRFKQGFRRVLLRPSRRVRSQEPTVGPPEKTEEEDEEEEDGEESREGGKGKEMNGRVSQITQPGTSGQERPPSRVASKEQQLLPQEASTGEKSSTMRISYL

SMILES	Ki (hsst1) [nM]	Ki (hsst2) [nM]	Ki (hsst4) [nM]	IC50 [1] [nM]	Ki (hsst5) [nM]	Ki (hsst3) [nM]
CN[C@@H](Cc1ccc(Cl)cc1)C(=O)N[C@@H]1CSSC[C@@H](C(=O)N[C@@H](Cc2ccc3ccccc3c2)C(N)=O)NC(=O)[C@H]([C@@H](C)O)NC(=O)[C@H](CCCCN)NC(=O)[C@@H](Cc2c[nH]c3ccccc23)NC(=O)[C@H](Cc2cccnc2)NC1=O [Peptide 1, NmeCpa-cyclo(DCys-3-Pal-DTrp-Lys-Thr-Cys)-2-Nal-NH2]	1000	36 ± 7.6	1000	7.8 ± 2.7	40.1 ± 18.8	330 ± 126
C[C@@H](O)[C@@H]1NC(=O)[C@H](CCCCN)N(C)C(=O)[C@@H](Cc2c[nH]c3ccccc23)N(C)C(=O)[C@H](Cc2cccnc2)NC(=O)[C@H](NC(=O)[C@@H](N)Cc2ccc(Cl)cc2)CSSC[C@@H](C(=O)N[C@@H](Cc2ccc3ccccc3c2)C(N)=O)NC1=O [Peptide 11, Cpa-cyclo(DCys-3-Pal-NMeDTrp-NMeLys-Thr-Cys)-2-Nal-NH2] (H-[Phe(4-Cl)][dC][3Pal][dNMeW][NMeK]TC[2Nal]-NH2; disulfide 2-7)	1000	9.33 ± 0.62	1000	2.5 ± 0.2	112 ± 19	140 ± 10.4
